Here are results for 22 compounds from patent US12172975B2, “1H-indazole carboxamides as receptor-interacting protein kinase 1 inhibitors (RIPK1)” (BRISTOL-MYERS SQUIBB COMPANY, priority 2018, dated 2024).

Assay [1] addresses His-GST-TVMV-hRIPK1 (1-324) (Homo sapiens (Human), UniProt Q13546). In words: RIPK1 HTRF Binding Assay. The conditions noted are these: read-out: RIPK1 HTRF (IC50); FRET probe displacement, 1 h at rt.
In assay [2] the test system is MLKL phosphorylation in HT29-L23 human colorectal adenocarcinoma cells. In words: MLKL Phosphorylation High-Content Assay. The conditions noted are these: 6 h, necroptosis induced with TNFα, SMAC mimetic and Z-VAD, read-out: pMLKL (IC50). Format: cell-based. The method, then: MLKL Phosphorylation High-Content Assay
HT29-L23 human colorectal adenocarcinoma cells were maintained in RPMI 1640 medium containing 10% heat-inactivated FBS, 1% Penicillin-Streptomycin and 10 mM HEPES. Cells were seeded at 2,000 cells/well in 384 well tissue culture-treated microplates (Greiner #781090-3B) and incubated at 37° C. (5% CO2/95% O2) for 2 d. […] (5% CO2/95% O2). Necroptopsis was induced using a mixture of human TNFα (35 ng/mL) (Peprotech #300-01A), SMAC mimetic (from US 2015/0322111 A1) (700 nM) and Z-VAD ([…]) (BD pharmingen #51-6936). Following 6 h incubation at 37° C. (5% CO2/95% O2), the cells were fixed with 4% formaldehyde (ACROS 11969-0010) for 15 min at rt, then permeabilized with phosphate buffered saline (PBS) containing 0.2% Triton-X-100 for 10 min. MLKL phosphorylation was detected using anti-MLKL (phospho S358) antibody (Abeam #ab 187091) (1:1000 dilution in Blocking Buffer [PBS supplemented with 0.1% BSA]) with ON incubation at 4° C. After washing three times in PBS, goat anti-rabbit Alexa-488 (1:1000 dilution) (Life Technologies, A11008) and Hoechst 33342 (Life Technologies, H3570) (1:2000 dilution) in Blocking Buffer were added for 1 h at rt.
Following another three cycles of washes in PBS, the microplates were sealed, and cellular images were acquired in the Cellomics ArrayScan VTI high-content imager equipped with an X1 camera. Fluorescent images were taken using a 10× objective and the 386-23 BGRFRN_BGRFRN and 485-20 BGRFRN_BGRFRN filter sets, for nuclei and MLKL phosphorylation, respectively. The image sets were analyzed using the Compartmental Analysis Bioapplication software (Cellomics). The level of MLKL phosphorylation was quantified as MEAN_CircRingAvglntenRatio. The maximal inhibitory response was defined by the activity induced by Neels (CAS #: 852391-15-2, 6.25 μM). […] The data were fitted using the 4-parameter logistic equation to calculate the IC50 and Ymax values.

Structures can show the parent of a compound that is named as a salt. Where two headings read alike, the source gives them in different places.

His-GST-TVMV-hRIPK1 (1-324), sequence (Q13546 1-324): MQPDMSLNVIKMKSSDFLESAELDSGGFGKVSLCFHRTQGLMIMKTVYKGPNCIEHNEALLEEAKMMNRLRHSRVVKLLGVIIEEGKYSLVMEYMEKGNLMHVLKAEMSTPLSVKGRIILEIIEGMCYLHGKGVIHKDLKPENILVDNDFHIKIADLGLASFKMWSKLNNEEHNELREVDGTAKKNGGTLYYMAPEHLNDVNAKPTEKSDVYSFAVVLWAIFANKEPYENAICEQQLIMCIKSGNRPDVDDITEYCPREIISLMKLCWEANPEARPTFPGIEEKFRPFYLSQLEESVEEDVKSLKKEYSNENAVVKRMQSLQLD

As for `CNC(=O)c1n[nH]c2cc(-c3cc(C(=O)NC(C)c4ccccc4OC(F)(F)F)c(OC)nc3C)ccc12` (stereo not shown) [Example 158, 6-[6-methoxy-2-methyl-5-({1-[2-(trifluoromethoxy)-phenyl]ethyl}carbamoyl)-pyridin-3-yl]-N-methyl-1H-indazole-3-carboxamide], the IC50 in assay [1] was 35 nM; in assay [2] (Homo sapiens), 21 nM.
Regarding `CNC(=O)c1n[nH]c2cc(-c3cnc(OC)c(C(=O)N4CCC[C@@H](Cc5ccc(F)cc5)C4)c3)ccc12` [Example 134, 6-{5-[(3S)-3-[(4-fluorophenyl)-methyl]piperidine-1-carbonyl]-6-methoxy-pyridin-3-yl}-N-methyl-1H-indazole-3-carbox-amide, TFA], the concentration for half-maximal inhibition (IC50) is 17 nM in assay [1] and 7.3 nM in assay [2].
As to `CCN(CC1CCC1)C(=O)C1CCCC(NC(=O)c2cc(-c3ccc4c(C(=O)NC)n[nH]c4c3)cnc2OC)C1` (stereo not shown) [Example 124, 6-[5-({3-[(cyclobutylmethyl)-(ethyl)carbamoyl]cyclohexyl}-carbamoyl)-6-methoxypyridin-3-yl]-N-methyl-1H-indazole-3-carboxamide], the results for the IC50 in assay [1] and in assay [2] (Homo sapiens) were 26 nM and 83 nM, respectively.
As for `CNC(=O)c1n[nH]c2cc(-c3cnc(OC)c(C(=O)NCCCOCC(C)C)c3)ccc12` [Example 64, 6-(6-methoxy-5-{[3-(2-methyl-propoxy)propyl]carbamoyl}-pyridin-3-yl)-N-methyl-1H-indazole-3-carboxamide], the half-maximal inhibitory concentration (IC50) in assay [1] amounted to 8.1 nM; in assay [2] (Homo sapiens), 3 nM.
On to `CNC(=O)c1n[nH]c2cc(-c3cnc(OC)c(C(=O)NCC(C)(C)C(=O)NCc4ccc(F)cc4)c3)ccc12` [Example 91, 6-{5-[(2-{[(4-fluorophenyl)-methyl]carbamoyl}-2,2-dimethylethyl)carbamoyl]-6-methoxypyridin-3-yl}-N-methyl-1H-indazole-3-carboxamide], for which the IC50 in assay [1] was 1.8 nM; in assay [2] (Homo sapiens), 16 nM.
`COc1ncc(-c2ccc3c(C(=O)NC4CCN(S(C)(=O)=O)CC4)n[nH]c3c2)cc1C(=O)NCc1ccccc1OC(F)(F)F` [Example 169, N-(1-methanesulfonylpiperidin-4-yl)-6-[6-methoxy-5-({[2-(trifluoromethoxy)phenyl]-methyl}carbamoyl)pyridin-3-yl]-1H-indazole-3-carboxamide]: the half-inhibitory concentration (IC50) in assay [1] was 22 nM; in assay [2] (Homo sapiens), 31 nM.
As for `[2H]C([2H])([2H])NC(=O)c1n[nH]c2cc(-c3cnc(OC([2H])([2H])[2H])c(C(=O)N[C@@H]4CN(C(=O)C5CC(F)(F)C5)C[C@@H]4F)c3)ccc12` [Example 12, 6-(5-(((3R,4S)-1-(3,3-difluorocyclobutanecarbonyl)-4-fluoropyrrolidin-3-yl)carbamoyl)-6-methoxyd3-pyridin-3-yl)-N-methyl d3-1H-indazole-3-carboxamide], the values for the IC50 in assay [1] and in assay [2] (Homo sapiens) were 42 nM and 400 nM, respectively.
As to `CNC(=O)c1n[nH]c2cc(-c3cnc(C)c(C(=O)NC(C)c4cccc(OC(F)(F)F)c4)c3)ccc12` (single isomer, unassigned) [Example 156, N-methyl-6-[6-methyl-5-({1-[3-(tri-fluoromethoxy)phenyl]ethyl}car-bamoyl)pyridin-3-yl]-1H-indazole-3-carboxamide], the IC50 in assay [1] was determined as 3.7 nM; in assay [2] it was 7.9 nM.
For the compound `[2H]C([2H])([2H])Oc1ncc(-c2ccc3c(C(=O)NC4CC4)n[nH]c3c2)cc1C(=O)N[C@H](C)c1cccc(C(F)(F)F)c1` [Example 210, N-cyclopropyl-6-[6-(deutero)meth-oxy-5-{[(1R)-1-[3-(trifluorometh-yl)phenyl]ethyl]carbamoyl}pyridin-3-yl]-1H-indazole-3-carboxamide], the IC50 in assay [1] was 450 nM; in assay [2] (Homo sapiens) it was 88 nM.
In the case of `COc1ncc(-c2ccc3c(C(=O)NC4CCC(N(C)C)CC4)n[nH]c3c2)cc1C(=O)NCc1ccccc1OC(F)(F)F` (stereo not shown) [Example 185, N-[4-(dimethylamino)cyclo-hexyl]-6-[6-methoxy-5-({[2-(trifluoromethoxy)phenyl]-methyl}carbamoyl)pyridin-3-yl]-1H-indazole-3-carboxamide], the values for the IC50 in assay [1] and in assay [2] (Homo sapiens) were 13 nM and 110 nM, respectively.
Consider `CNC(=O)c1n[nH]c2cc(-c3cnc(OC)c(C(=O)NCc4cc(OC(F)(F)F)ccc4F)c3)ccc12` [Example 137], for which the figures for the IC50 in assay [1] and in assay [2] were 1.6 nM and 2.9 nM, respectively.
Consider `CNC(=O)c1n[nH]c2cc(-c3cnc(OC)c(C(=O)NCC(C)(C)C(=O)OC(C)(C)C)c3)ccc12` [Example 90, tert-butyl 3-({2-methoxy-5-[3-(methylcarbamoyl)-1H-indazol-6-yl]pyridin-3-yl}-formamido)-2,2-dimethyl-propanoate], for which the IC50 in assay [1] was determined as 16 nM; in assay [2] (Homo sapiens), 47 nM.
Take `CNC(=O)c1n[nH]c2cc(-c3cnc(OC)c(C(=O)NCC4CCCC4(C)C)c3)ccc12` (stereo not shown) [Example 116, 6-(5-{[(2,2-dimethylcyclo-pentyl)methyl]carbamoyl}-6-methoxypyridin-3-yl)-N-methyl-1H-indazole-3-carbox-amide]: the IC50 in assay [1] came to 9.6 nM; in assay [2], 54 nM.
Turning to `CCCNC(=O)c1n[nH]c2cc(-c3cnc(OC)c(C(=O)NCc4ccccc4OC(F)(F)F)c3)ccc12` [Example 176, 6-[6-methoxy-5-({[2-(trifluoro-methoxy)phenyl]methyl}carbam-oyl)pyridin-3-yl]-N-propyl-1H-indazole-3-carboxamide], the IC50 was 10 nM in assay [1] and 16 nM in assay [2] (Homo sapiens).
In the case of `CCN(CC)C1CCC(NC(=O)c2n[nH]c3cc(-c4cnc(OC)c(C(=O)NCc5ccccc5OC(F)(F)F)c4)ccc23)CC1` (stereo not shown) [Example 184, N-[4-(diethylamino)cyclohexyl]-6-[6-methoxy-5-({[2-(trifluoro-methoxy)phenyl]methyl}carbam-oyl)pyridin-3-yl]-1H-indazole-3-carboxamide, TFA], the results for the IC50 in assay [1] and in assay [2] (Homo sapiens) were 7 nM and 88 nM, respectively.
As to `CNC(=O)c1n[nH]c2cc(-c3cnc(OC)c(C(=O)NC(C)c4ccccc4OC(F)(F)F)c3)ccc12` (single isomer, unassigned) [Example 15, 6-(6-methoxyd3-5-((1-(2-(trifluoromethoxy)phenyl)ethyl)carbamoyl)pyridin-3-yl)-N-methyl-1H-indazole-3-carboxamide], the IC50 in assay [1] stood at 5 nM.
For `COc1ncc(-c2ccc3c(C(=O)NC(C)C)n[nH]c3c2)cc1C(=O)NCc1ccccc1OC(F)(F)F` [Example 179, 6-[6-methoxy-5-({[2-(trifluoro-methoxy)phenyl]methyl}carbam-oyl)pyridin-3-yl]-N-(propan-2-yl)-1H-indazole-3-carboxamide], the IC50 in assay [2] (Homo sapiens) was 73 nM.
Regarding `CNC(=O)c1n[nH]c2cc(-c3cnc(OC)c(C(=O)NCCCOC(C)(C)C)c3)ccc12` [Example 60, 6-(5-{[3-(tert-butoxy)propyl]-carbamoyl}-6-methoxypyridin-3-yl)-N-methyl-1H-indazole-3-carboxamide], the concentration for half-maximal inhibition (IC50) in assay [2] (Homo sapiens) is 16 nM.
In the case of `[2H]C([2H])([2H])Oc1ncc(-c2ccc3c(C(=O)NC)n[nH]c3c2)cc1C(=O)N[C@H](C)c1cccc(OC(F)(F)F)c1` [Example 14, (R)-6-(6-methoxyd3-5-((1-(3-(trifluoromethoxy)phenyl)ethyl)carbamoyl)pyridin-3-yl)-N-methyl-1H-indazole-3-carboxamide], the IC50 in assay [2] (Homo sapiens) came out at 37 nM.
As to `CNC(=O)c1n[nH]c2cc(-c3cnc(OC)c(C(=O)N[C@H]4C[C@@H]4c4ccccc4)c3)ccc12` [Example 46, 6-(6-methoxy-5-{[(1S,2R)-2-phenylcyclopropyl]carbamoyl}-pyridin-3-yl)-N-methyl-1H-indazole-3-carboxamide], the concentration for half-maximal inhibition (IC50) in assay [2] (Homo sapiens) was 4.4 nM.
Turning to `CNC(=O)c1n[nH]c2cc(-c3cnc(OC)c(C(=O)NCC4CC4c4cccc(F)c4)c3)ccc12` (stereo not shown) [Example 42, 6-[5-({[2-(3-fluorophenyl)cyclo-propyl]methyl}carbamoyl)-6-methoxypyridin-3-yl]-N-methyl-1H-indazole-3-carboxamide], in assay [2] (Homo sapiens), the IC50 was 88 nM.
Still for that read-out and setting: under `CNC(=O)c1n[nH]c2cc(-c3cnc(OC)c(C(=O)NCCC(O)c4ccc(OC)cc4)c3)ccc12` (stereo not shown) [Example 38, 6-(5-{[3-hydroxy-3-(4-methoxy-phenyl)propyl]carbamoyl}-6-methoxypyridin-3-yl)-N-methyl-1H-indazole-3-carboxamide] stands 13 nM.
